# Assay results from ChEMBL document CHEMBL2177076, “Rational design of potent non-nucleoside inhibitors of HIV-1 reverse transcriptase” (J Med Chem, 2012).
# The source made the active and inactive calls. No cut-off for these calls is given here.
# Legend:
# [1] = system: Human immunodeficiency virus 1; experiment: Antiviral activity against NNRTI-resistant HIV1 harboring reverse transcriptase Y181C mutant infected in human MT4 cells assessed as inhibition of viral replication after 72 hrs by HeLa-CD4-LTR-beta-gal assay; type: functional, organism-based; settings: Human immunodeficiency virus 1, MT4, 72 h
# [2] = system: Human immunodeficiency virus 1; experiment: Antiviral activity against HIV1 expressing wild type reverse transcriptase infected in human MT4 cells assessed as inhibition of viral replication after 72 hrs by HeLa-CD4-LTR-beta-gal assay; type: functional, organism-based; settings: Human immunodeficiency virus 1, MT4, 72 h
# [3] = system: Human immunodeficiency virus 1; experiment: Antiviral activity against NNRTI-resistant HIV1 harboring reverse transcriptase K103N mutant infected in human MT4 cells assessed as inhibition of viral replication after 72 hrs by HeLa-CD4-LTR-beta-gal assay; type: functional, organism-based; settings: Human immunodeficiency virus 1, MT4, 72 h
# [4] = system: Human immunodeficiency virus 1; experiment: Antiviral activity against NNRTI-resistant HIV1 harboring reverse transcriptase Y188L mutant infected in human MT4 cells assessed as inhibition of viral replication after 72 hrs by HeLa-CD4-LTR-beta-gal assay; type: functional, organism-based; settings: Human immunodeficiency virus 1, MT4, 72 h
# [5] = system: Human immunodeficiency virus 1; experiment: Antiviral activity against NNRTI-resistant HIV1 harboring reverse transcriptase Y181C/V179F double mutant infected in human MT4 cells assessed as inhibition of viral replication after 72 hrs by HeLa-CD4-LTR-beta-gal assay; type: functional, organism-based
# [6] = system: Human immunodeficiency virus 1; experiment: Antiviral activity against NNRTI-resistant HIV1 harboring reverse transcriptase Y181I/V179F double mutant infected in human MT4 cells assessed as inhibition of viral replication after 72 hrs by HeLa-CD4-LTR-beta-gal assay; type: functional, organism-based
# [7] = system: Human immunodeficiency virus 1; experiment: Antiviral activity against NNRTI-resistant HIV1 harboring reverse transcriptase Y181C/K103N double mutant infected in human MT4 cells assessed as inhibition of viral replication after 72 hrs by HeLa-CD4-LTR-beta-gal assay; type: functional, organism-based
# [8] = system: Human immunodeficiency virus 1; experiment: Antiviral activity against NNRTI-resistant HIV1 harboring reverse transcriptase Y181C/F227C double mutant infected in human MT4 cells assessed as inhibition of viral replication after 72 hrs by HeLa-CD4-LTR-beta-gal assay; type: functional, organism-based
# [9] = system: Human immunodeficiency virus 1; experiment: Antiviral activity against NNRTI-resistant HIV1 harboring reverse transcriptase Y181V mutant infected in human MT4 cells assessed as inhibition of viral replication after 72 hrs by HeLa-CD4-LTR-beta-gal assay; type: functional, organism-based
# [10] = Oral bioavailability in dog at 5 mg/kg; type: ADME, organism-based, Canis lupus familiaris; settings: in vivo
# [11] = Half life in Sprague-Dawley rat at 1 mg/kg, iv; type: ADME, organism-based; set-up: dose 1 mg/kg, route intravenous; settings: in vivo
# [12] = Volume of distribution at steady state in Sprague-Dawley rat at 1 mg/kg, iv; type: ADME, organism-based; set-up: dose 1 mg/kg, route intravenous; settings: in vivo, read-out: Vdss
# [13] = Clearance in Sprague-Dawley rat at 1 mg/kg, iv; type: ADME, organism-based; set-up: dose 1 mg/kg, route intravenous; settings: in vivo
# Rattus norvegicus = experiment: AUC (0 to infinity) in Sprague-Dawley rat at 5 mg/kg, po; type: ADME, organism-based, Plasma; set-up: time infinity, dose 5 mg/kg, route oral; settings: in vivo
# [14] = system: Human immunodeficiency virus 1; experiment: Antiviral activity against NNRTI-resistant HIV1 harboring reverse transcriptase Y181I mutant infected in human MT4 cells assessed as inhibition of viral replication after 72 hrs by HeLa-CD4-LTR-beta-gal assay; type: functional, organism-based
# [15] = Volume of distribution at steady state in cynomolgus monkey at 1 mg/kg, iv; type: ADME, organism-based, Macaca fascicularis; set-up: dose 1 mg/kg, route intravenous; settings: in vivo, read-out: Vdss
# [16] = Clearance in mouse at 1 mg/kg, iv; type: ADME, organism-based; set-up: dose 1 mg/kg, route intravenous; settings: in vivo
# [17] = Clearance in cynomolgus monkey at 1 mg/kg, iv; type: ADME, organism-based, Macaca fascicularis; set-up: dose 1 mg/kg, route intravenous; settings: in vivo
# [18] = Volume of distribution at steady state in dog at 1 mg/kg, iv; type: ADME, organism-based, Canis lupus familiaris; set-up: dose 1 mg/kg, route intravenous; settings: in vivo, read-out: Vdss
# [19] = Half life in mouse at 1 mg/kg, iv; type: ADME, organism-based; set-up: dose 1 mg/kg, route intravenous; settings: in vivo
# [20] = Oral bioavailability in Sprague-Dawley rat at 5 mg/kg; type: ADME, organism-based; settings: in vivo
# Mus musculus = experiment: AUC (0 to infinity) in mouse at 5 mg/kg, po; type: ADME, organism-based, Plasma; set-up: time infinity, dose 5 mg/kg, route oral; settings: in vivo
# [21] = system: Human immunodeficiency virus 1; experiment: Selectivity ratio of EC50 for NNRTI-resistant HIV1 harboring reverse transcriptase Y188L mutant to EC50 for HIV1 expressing wild type reverse transcriptase; type: functional
# [22] = Oral bioavailability in cynomolgus monkey at 5 mg/kg; type: ADME, organism-based, Macaca fascicularis; settings: in vivo
# [23] = system: Human immunodeficiency virus 1; experiment: Selectivity ratio of EC50 for NNRTI-resistant HIV1 harboring reverse transcriptase Y181I mutant to EC50 for HIV1 expressing wild type reverse transcriptase; type: functional
# [24] = Volume of distribution at steady state in mouse at 1 mg/kg, iv; type: ADME, organism-based; set-up: dose 1 mg/kg, route intravenous; settings: in vivo, read-out: Vdss
# [25] = system: Human immunodeficiency virus 1; experiment: Ratio of EC50 for HIV1 expressing wild type reverse transcriptase in presence of human serum albumin and human alpha-1 acid glycoprotein to EC50 for HIV1 expressing wild type reverse transcriptase; type: functional
# Cynomolgus monkey = experiment: AUC (0 to infinity) in cynomolgus monkey at 5 mg/kg, po; type: ADME, organism-based, Macaca fascicularis, Plasma; set-up: time infinity, dose 5 mg/kg, route oral; settings: in vivo
# [26] = Half life in cynomolgus monkey at 1 mg/kg, iv; type: ADME, organism-based, Macaca fascicularis; set-up: dose 1 mg/kg, route intravenous; settings: in vivo
# Canis familiaris = experiment: AUC (0 to infinity) in dog at 5 mg/kg, po; type: ADME, organism-based, Canis lupus familiaris, Plasma; set-up: time infinity, dose 5 mg/kg, route oral; settings: in vivo
# [27] = Oral bioavailability in mouse at 5 mg/kg; type: ADME, organism-based; settings: in vivo
# [28] = system: Human immunodeficiency virus 1; experiment: Selectivity ratio of EC50 for NNRTI-resistant HIV1 harboring reverse transcriptase Y181V mutant to EC50 for HIV1 expressing wild type reverse transcriptase; type: functional
# [29] = Clearance in dog at 1 mg/kg, iv; type: ADME, organism-based, Canis lupus familiaris; set-up: dose 1 mg/kg, route intravenous; settings: in vivo
# [30] = Half life in dog at 1 mg/kg, iv; type: ADME, organism-based, Canis lupus familiaris; set-up: dose 1 mg/kg, route intravenous; settings: in vivo
# [31] = Dissociation constant, pKa of the compound; type: physicochemical
smiles,measurement,setting,value
N#Cc1cc(Cl)cc(Oc2c(Cl)ccc(CNC(=O)c3cnc[nH]3)c2F)c1,EC50,[1],260 nM
same,EC50,[2],9.7 nM
same,EC50,[3],48 nM
same,EC50,[4],> 1000 nM
N#Cc1cc(Cl)cc(Oc2c(Cl)ccc(CNC(=O)c3cc4ccccc4[nH]3)c2F)c1,EC50,[1],58 nM
same,EC50,[2],8.9 nM
same,EC50,[3],26 nM
same,EC50,[4],> 1000 nM
Cc1cc(/C=C/C#N)cc(C)c1Nc1ccnc(Nc2ccc(C#N)cc2)n1 [RILPIVIRINE],inhibition,[5],inactive
same,inhibition,[6],inactive
same,inhibition,[7],inactive
same,inhibition,[8],inactive
same,EC50,[4],3.7 nM
Cc1cc(S(N)(=O)=O)ccc1NC(=O)COc1ccc(Cl)cc1C(=O)c1cc(Cl)cc(C#N)c1,EC50,[1],0.5 nM
same,EC50,[2],0.3 nM
same,EC50,[3],0.5 nM
same,EC50,[4],18 nM
N#Cc1cc(Cl)cc(Oc2c(Cl)ccc(CNC(=O)c3[nH]cnc3Br)c2F)c1,EC50,[1],0.2 nM
same,EC50,[2],0.1 nM
same,EC50,[4],7.1 nM
N#Cc1cc(Cl)cc(Oc2c(Br)ccc(CNC(=O)c3[nH]c(N)nc3Cl)c2F)c1,inhibition,[9],Active
same,bioavailability,[10],47%
same,half-life,[11],2.2 h
same,Vd,[12],3.6 L/kg
same,clearance,[13],28.6 mL/min/kg
same,AUC,Rattus norvegicus,2510 ng·h/mL
same,inhibition,[14],Active
same,inhibition,[5],Active
same,EC50,[2],0.1 nM
same,Vd,[15],1.8 L/kg
same,clearance,[16],8.2 mL/min/kg
same,clearance,[17],4.7 mL/min/kg
same,Vd,[18],0.9 L/kg
same,half-life,[19],3.1 h
same,bioavailability,[20],84%
same,inhibition,[6],Active
same,AUC,Mus musculus,9600 ng·h/mL
same,inhibition,[7],Active
same,Ratio EC50,[21],5
same,bioavailability,[22],34%
same,Ratio EC50,[23],<3
same,Vd,[24],2.1 L/kg
same,Ratio EC50,[25],71
same,AUC,Cynomolgus monkey,6460 ng·h/mL
same,half-life,[26],6.1 h
same,EC50,"[8]; Human immunodeficiency virus 1, MT4, 72 h",3.2 nM
same,AUC,Canis familiaris,14300 ng·h/mL
same,bioavailability,[27],94%
same,Ratio EC50,[28],<3
same,EC50,[4],0.5 nM
same,clearance,[29],2.8 mL/min/kg
same,half-life,[30],4.3 h
O=C1Nc2ccc(Cl)cc2[C@@](C#CC2CC2)(C(F)(F)F)O1 [EFAVIRENZ],EC50,[1],1 nM
same,EC50,[3],20 nM
same,EC50,[4],157 nM
Cc1cc(C#N)cc(C)c1Oc1nc(Nc2ccc(C#N)cc2)nc(N)c1Br [ETRAVIRINE],EC50,[1],2.4 nM
same,inhibition,[5],inactive
same,EC50,[2],0.6 nM
same,EC50,[3],0.4 nM
same,inhibition,[6],inactive
same,inhibition,[7],inactive
same,Ratio EC50,[25],13
same,inhibition,[8],inactive
same,Ratio EC50,[28],83
same,EC50,[4],0.9 nM
N#Cc1cc(Cl)cc(Oc2c(Cl)ccc(CNC(=O)c3[nH]c(CO)nc3Cl)c2F)c1,EC50,[1],1.2 nM
same,EC50,[2],0.3 nM
same,EC50,[4],24 nM
N#Cc1cc(Cl)cc(Oc2c(Cl)ccc(CNC(=O)c3[nH]cnc3C(F)(F)F)c2F)c1,EC50,[1],1.4 nM
same,EC50,[2],0.1 nM
same,EC50,[3],0.7 nM
same,EC50,[4],320 nM
Cc1nc[nH]c1C(=O)NCc1ccc(Cl)c(Oc2cc(Cl)cc(C#N)c2)c1F,EC50,[1],15 nM
same,EC50,[2],2.4 nM
same,pKa,[31],> 12
same,EC50,[3],7.2 nM
same,EC50,[4],> 1000 nM
N#Cc1cc(Cl)cc(Oc2c(Cl)ccc(CNC(=O)c3nc4ccccc4[nH]3)c2F)c1,EC50,[1],27 nM
same,EC50,[2],5.1 nM
same,EC50,[3],18 nM
same,EC50,[4],> 1000 nM
N#Cc1cc(Cl)cc(Oc2c(Cl)ccc(CNC(=O)c3[nH]cnc3Cl)c2F)c1,EC50,[1],0.2 nM
same,EC50,[2],0.1 nM
same,pKa,[31],8.9
same,EC50,[4],5.6 nM
N#Cc1cc(Cl)cc(Oc2c(Cl)ccc(CNC(=O)c3[nH]c(O)nc3Cl)c2F)c1,EC50,[1],57 nM
same,EC50,[2],5.3 nM
same,EC50,[3],14 nM
same,EC50,[4],> 1000 nM
Cn1cncc1C(=O)NCc1ccc(Cl)c(Oc2cc(Cl)cc(C#N)c2)c1F,EC50,[1],> 1000 nM
same,EC50,[2],120 nM
same,EC50,[3],460 nM
same,EC50,[4],> 1000 nM
CCCc1nc(Cl)c(C(=O)NCc2ccc(Cl)c(Oc3cc(Cl)cc(C#N)c3)c2F)[nH]1,EC50,[1],1.3 nM
same,EC50,[2],0.3 nM
same,EC50,[3],0.4 nM
same,EC50,[4],240 nM
N#Cc1cc(Cl)cc(Oc2c(Cl)ccc(CNC(=O)c3ccc(S(N)(=O)=O)cc3Cl)c2F)c1,EC50,[1],180 nM
same,EC50,[2],13 nM
same,EC50,[3],60 nM
same,EC50,[4],> 1000 nM
CCc1nc(Cl)c(C(=O)NCc2ccc(Cl)c(Oc3cc(Cl)cc(C#N)c3)c2F)[nH]1,EC50,[1],0.8 nM
same,EC50,[2],0.3 nM
same,EC50,[4],76 nM
N#Cc1cc(Cl)cc(Oc2c(Cl)ccc(CNC(=O)c3cc4ccccc4o3)c2F)c1,EC50,[1],340 nM
same,EC50,[2],52 nM
same,EC50,[3],380 nM
same,EC50,[4],> 1000 nM
N#Cc1cc(Cl)cc(Oc2c(Cl)ccc(CNC(=O)c3[nH]c(N)nc3Cl)c2F)c1,EC50,[2],0.1 nM
same,EC50,[4],0.9 nM
Cc1nc(Cl)c(C(=O)NCc2ccc(Cl)c(Oc3cc(Cl)cc(C#N)c3)c2F)[nH]1,EC50,[1],0.3 nM
same,EC50,[2],0.2 nM
same,EC50,[4],11 nM
